In data set [1] the test system is NF-κB. The note with it: human.
In data set [2] the test system is HeLa cells. The note with it: human.
Method: The cytotoxicity of the boronic acid derivatives from Table 1 was studied by MTT assay. 150,000 HeLa cells were plated in 96 well plates on the night before the experiments. On the day of experiments, the cells were treated with the boronic acid derivatives at three different concentrations (40 nM, 80 nM, and 160 nM) for 2 h. At the end of the incubation, MTT assays (In-Vitro toxicology MTT based assay kit, Sigma Aldrich, MO) were performed according to the manufacturer's protocol.

Here are results for one compound from patent US9278068B2, “Vesicle compositions” (Sensulin LLC, priority 2011, dated 2016).

In the case of `OB(O)c1ccc(Cl)cc1` [4-chlorophenylboronic acid], in data set [1], the “Inflammation (PCC) 40 nM” value is reported as −0.1494, the “Inflammation (PCC) 80 nM” value is listed as 0.01664 and the “Inflammation (PCC) 160 nM” value was found to be 0. Besides, in data set [2], the “MTT (% Cell Survival) 40 nM” value worked out at 51.23%, the “MTT (% Cell Survival) 80 nM” value turned out to be 81.65% and the “MTT (% Cell Survival) 160 nM” value was 56.97%.
